Measured values: US20190338290A1, “TREATMENT OF SARCOMA” (MEMORIAL SLOAN KETTERING CANCER CENTER, priority 2017, published 2019)

Test system: SS18-SSX / KDM2B co-localization
Assay: Proximity ligation assay (PLA) of SS18-SSX and KDM2B
Format: cell-based, human
Details: HS-SY-II cells, SS18-SSX knockdown
Procedure: Indicated synovial sarcoma cell lines were seeded at 3×10^4 cells/well in culture treated 8-well chamber slides and treated as previously described (Laporte et al., 2016). Primary antibodies for PLA were used at 1/1000 dilution: SS18 (Santa-Cruz Biotechnologies, sc-28698), KDM2B (Abnova, H00084678-M09), HA (Santa-Cruz Biotechnologies, sc-805). Proximity ligation was performed utilizing the Duolink® In Situ Red Starter Kit Mouse/Rabbit (Sigma-Aldrich, DUP92101-1KT) according to the manufacturer's protocol. Fluorescence was detected using a Zeiss Axioplan2 microscope at 40×. Images were quantified in triplicate using ImageJ software (NIH) as foci per nucleus, defined as the number of interaction points counted per nucleus. For PLA analysis upon SS18-SSX knockdown, duplex oligo (sense, […]; antisense, […]) SS18-SSX siRNAs were designed to target the SSX portion of SS18-SSX using the Integrated. DNA Technologies RNA interference (RNAi) design tool, and synthesized by Integrated DNA Technologies (IDT) as previously described (Lubieniecka et al., 2008). HS-SY-II cells were seeded in 6-well plates. At 60% confluence, cells were transfected with 50 pmol siSS18-SSX and 9 μL Lipofectamine RNAiMAX transfection reagent (Invitrogen) in Opti-MEM serum free media (Life Technologies). […]

## SSX targeting siRNA: duplex oligo siRNA (sense CAAGAAGCCAGCAGAGGAATT; antisense UUCCUCUGCUGGCUUCUUGTT) designed to target the SSX portion of SS18-SSX (chemistry not given here)
  PLA signal (SS18 and KDM2B antibodies): abolished
